According to patent publication US12616678B2, “Methods to of aldehyde dehydrogenases for treatment of cancer” (THE PENN STATE RESEARCH FOUNDATION, priority 2020, dated 2026):
Structures can show the parent of a compound that is named as a salt. Where two headings read alike, the source gives them in different places. One block for each molecule: values may come before it.

What was measured:
[1] = tested on: total cellular ALDH activity, UACC 903 cell lysates; assay: Total cellular ALDH activity in cell lysates, UACC 903; assay type: cell-based, human; conditions: 1 uM, 15 minutes, UACC 903 and 1205 Lu cell lysates
Text: The ALDHs reduce ROS, lipid peroxidation and toxic aldehyde accumulation, the latter of which can lead to cell damage and apoptosis as shown in FIG. 6A. Thus, inhibition of total cellular ALDH activity can increase toxic aldehydes, oxidative damage and apoptosis.

[2] = tested on: multiple myeloma cell lines (NCIH929, U266, RPMI8226, MM.1R); assay: MTS cell viability assay, multiple myeloma cells; assay type: cell-based; conditions: 72 hours, read-out: Average IC50s across all multiple myeloma cell lines tested
Text: (§1) Tumour Biol 2017; 39(3):1010428317694565; Rao P C, et al., Cytotoxicity of withasteroids: withametelin induces cell cycle arrest at G2/M phase and mitochondria-mediated apoptosis in non-small cell lung cancer A549 cells. Tumour Biol 2016; 37(9):12579-87; Dinavahi S S, et al., Combined inhibition of PDE4 and PI3Kdelta modulates the inflammatory component involved in the progression of chronic obstructive pulmonary disease. Drug Res (Stuttg) 2014; 64(4):214-9). Briefly, 3,000 cells per well were plated in a 96-well plate and incubated overnight at 37° C. in a 5% CO2 atmosphere. […] 20 μL of MTS reagent was then added into each well and formation of […] was measured by absorbance after 1 hour at 492 nm. IC50 values for each experimental group were measured in 3 independent experiments using GraphPad Prism version 7.04 (GraphPad Software, La Jolla, CA).

[3] = tested on: Colon cancer cells (HCT116 and HT29); assay: MTS cell viability assay, colon cancer cells; assay type: cell-based; conditions: HCT116 and HT29, 72 hours; read-out: Average IC50s across both colon cancer cell lines
Text: as §1

[4] = tested on: melanoma cells (UACC 903 and 1205 Lu) and normal human fibroblasts (FF2441); assay: MTS cell viability assay, all the cell lines evaluated; assay type: cell-based; conditions: read-out: IC50s in all the cell lines evaluated
Text: as §1

[5] = tested on: UACC 903 and 1205 Lu cells; assay: Lipid peroxidation (TBARS), melanoma cells; assay type: cell-based, human; conditions: 5 μM, 24 hours, vs DMSO
Text: DMSO served as the vehicle control.

[6] = tested on: UACC 903 and 1205 Lu cells; assay: ROS assay (DCFDA), melanoma cells; assay type: cell-based, human; conditions: 5 μM, 24 hours, vs DMSO
UACC 903 cells = assay: MTS cell viability assay, UACC 903; assay type: cell-based, human; conditions: 100 μM, 72 hours
ALDH3A1 = target: T1, ALDH3A1 (Homo sapiens, UniProt P30838); assay: ALDH isoform-specific enzyme assay, ALDH3A1 (NADH absorbance); assay type: biochemical
T1 construct: purchased R & D Systems, Inc, Minneapolis, MN, USA
T1 sequence (P30838 1-453): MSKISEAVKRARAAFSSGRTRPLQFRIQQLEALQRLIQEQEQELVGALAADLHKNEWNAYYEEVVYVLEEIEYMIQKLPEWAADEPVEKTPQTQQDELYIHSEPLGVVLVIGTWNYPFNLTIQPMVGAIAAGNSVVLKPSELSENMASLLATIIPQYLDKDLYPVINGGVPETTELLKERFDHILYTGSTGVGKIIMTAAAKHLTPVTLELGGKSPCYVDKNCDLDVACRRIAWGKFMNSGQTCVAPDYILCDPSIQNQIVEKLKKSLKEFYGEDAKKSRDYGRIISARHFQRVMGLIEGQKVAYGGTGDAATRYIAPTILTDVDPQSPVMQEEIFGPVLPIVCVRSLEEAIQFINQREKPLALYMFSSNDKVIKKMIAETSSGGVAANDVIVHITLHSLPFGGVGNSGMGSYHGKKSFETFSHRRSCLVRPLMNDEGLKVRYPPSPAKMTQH

ALDH1A1 = target: T2, ALDH1A1 (Homo sapiens, UniProt P00352); assay: ALDH isoform-specific enzyme assay, ALDH1A1 (NADH absorbance); assay type: biochemical; conditions: read-out: IC50s ALDH1A1
T2 construct: purchased R & D Systems, Inc, Minneapolis, MN, USA
T2 sequence (P00352 1-501): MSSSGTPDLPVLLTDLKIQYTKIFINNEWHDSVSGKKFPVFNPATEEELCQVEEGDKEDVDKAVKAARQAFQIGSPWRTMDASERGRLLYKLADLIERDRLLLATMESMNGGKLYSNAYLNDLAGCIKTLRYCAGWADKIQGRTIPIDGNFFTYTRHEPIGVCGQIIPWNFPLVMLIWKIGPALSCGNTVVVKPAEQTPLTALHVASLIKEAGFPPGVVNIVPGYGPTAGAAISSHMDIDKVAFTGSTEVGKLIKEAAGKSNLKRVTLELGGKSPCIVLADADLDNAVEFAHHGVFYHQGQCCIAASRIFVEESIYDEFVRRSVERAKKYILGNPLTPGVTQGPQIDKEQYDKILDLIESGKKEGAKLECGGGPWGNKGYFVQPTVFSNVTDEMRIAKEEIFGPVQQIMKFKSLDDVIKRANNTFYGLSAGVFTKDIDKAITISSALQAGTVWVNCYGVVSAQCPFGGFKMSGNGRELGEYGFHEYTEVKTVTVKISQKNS

ALDH2 = target: T3, ALDH2 (Homo sapiens, UniProt P05091); assay: ALDH isoform-specific enzyme assay, ALDH2 (NADH absorbance); assay type: biochemical; conditions: read-out: IC50s ALDH2
T3 construct: purchased R & D Systems, Inc, Minneapolis, MN, USA
T3 sequence (P05091 18-517): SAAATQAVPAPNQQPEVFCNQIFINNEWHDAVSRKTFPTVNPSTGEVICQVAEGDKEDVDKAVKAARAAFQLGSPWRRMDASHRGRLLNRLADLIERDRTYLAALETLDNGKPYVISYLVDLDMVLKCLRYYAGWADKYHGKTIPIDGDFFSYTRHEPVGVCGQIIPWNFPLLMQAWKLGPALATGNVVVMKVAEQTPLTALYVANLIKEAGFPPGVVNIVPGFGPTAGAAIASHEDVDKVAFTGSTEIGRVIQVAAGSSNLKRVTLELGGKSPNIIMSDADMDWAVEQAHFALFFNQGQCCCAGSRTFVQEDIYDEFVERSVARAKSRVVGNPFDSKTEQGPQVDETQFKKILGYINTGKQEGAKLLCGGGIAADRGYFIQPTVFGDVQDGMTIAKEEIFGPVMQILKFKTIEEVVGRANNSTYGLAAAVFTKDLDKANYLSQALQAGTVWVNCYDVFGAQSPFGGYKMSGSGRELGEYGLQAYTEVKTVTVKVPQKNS

Swiss-Webster mice = assay: Toxicity study, 14 days; assay type: in vivo, mouse; conditions: 5 mg/kg/day i.p. for 14 days, vs DMSO
Experimental: To determine the toxicity of 3(h-l), compounds were injected i.p. into Swiss-Webster mice once daily for 14 days (Id.). Animals were monitored for changes in body weight, behavior and physical distress compared to DMSO control.

[7] = tested on: colon cell lines (HCT116, HT29); assay: ROS assay (DCFDA) with or without NAC, Study 2; assay type: cell-based
[8] = tested on: colon cancer cell line, HCT116; assay: Cell survival MTS assay with addition of NAC; assay type: cell-based
[9] = tested on: HCT116 colon cancer cells; assay: Apoptosis by Annexin-V/7-AAD, HCT116; assay type: cell-based; set-up: dose or concentration left out as unconfirmed; conditions: vs DMSO control or 3a
[10] = tested on: colon cancer cell line HCT116; assay: Cell cycle by propidium iodide staining, HCT116; assay type: cell-based; conditions: reversed by addition of NAC
[11] = tested on: HCT116 colon cancer cell line; assay: Lipid peroxidation and toxic aldehyde accumulation (TBARS), Study 2

SMILES: O=C1Nc2ccccc2C1=O [Isatin]
effect on total cellular ALDH activity [1]: ineffective

IC50 [2]: 1600 nM | IC50 [3]: 2.9 µM
SMILES: N=C(N)SCc1ccc(CN2C(=O)C(=O)c3cc(Cl)cc(Cl)c32)cc1 [Compound 3k, 2-[4-(5,7-Dichloro-2,3-dioxo-2,3-dihydroindol-1-ylmethyl)benzyl]isothiourea hydrobromide]

SMILES: O=C1C(=O)N(Cc2ccccc2)c2ccccc21 [Cpd 3]
IC50 [4]: > 100 µM

SMILES: CCOC(=O)CSc1nc2c(sc3ccccc32)c(=O)n1CCCN1CCCC1 [CM037]
lipid peroxidation and toxic aldehyde accumulation [5]: significantly increased lipid peroxidation and toxic aldehyde accumulation | effect on total cellular ALDH activity [1]: significantly reduced | ROS levels [6]: significantly increased ROS levels

SMILES: CCN(CC)c1ccc(C=O)cc1 [DEAB]
lipid peroxidation and toxic aldehyde accumulation [5]: significantly increased lipid peroxidation and toxic aldehyde accumulation | reduction of UACC 903 cell survival (UACC 903 cells): 30% | IC50 (ALDH3A1; as rounded in text, read-out: IC50 ALDH3A1): 15.1 µM | IC50 (ALDH3A1; read-out: IC50s ALDH3A1): 15.1 µM | effect on total cellular ALDH activity [1]: significantly reduced | ROS levels [6]: significantly increased ROS levels

SMILES: N=C(N)[Se]Cc1ccc(CN2C(=O)C(=O)c3cc(Br)ccc32)cc1 [Compound 4b, 2-[4-(5-Bromo-2,3-dioxo-2,3-dihydroindol-1-ylmethyl)benzyl]isoselenourea hydrobromide]
inhibition at 0.5 µM (ALDH3A1; read-out: % inhibition of ALDH3A1): ≥ 60%

IC50 (ALDH1A1): 139 µM | IC50 (ALDH2): 144 µM
SMILES: Cc1nc2ccccc2n1S(=O)(=O)c1ccc(F)cc1 [CB7]

IC50 [2]: 1900 nM | IC50 [3]: 5.3 µM
SMILES: Br.N=C(N)SCc1ccc(CN2C(=O)C(=O)c3cc(C(F)(F)F)ccc32)cc1 [Compound 3h, 2-[4-(2,3-Dioxo-5-trifluoromethyl-2,3-dihydroindol-1-ylmethyl)benzyl]isothiourea hydrobromide]
weight loss (Swiss-Webster mice): no significant weight loss | ROS levels ([7]; 5 μM, 24 hours, vs DMSO): significantly increased ROS levels | ROS-inducing activity on addition of N-Acetyl Cysteine (NAC) ([7]; with NAC): abrogated | increase of cell killing IC50 on addition of NAC [8]: 6 fold | percentage of cells both Annexin-V and 7-AAD positive [9]: significantly higher | cell cycle effect [10]: G2/M arrest | lipid peroxidation and toxic aldehyde accumulation ([11]; 5 μM, 24 hours, vs DMSO): significantly increased | lipid peroxidation effect on addition of NAC ([11]; with NAC): abrogated
